# Experiments:
# [1] = tested on: IL-6; test: Cytometric Bead Array of peritoneal fluid, chronic zymosan peritonitis: IL-6; format: in vivo, mouse; details: 2 mg/kg, vs Zymosan control
# Method: (§1) Peritoneal inflammation was induced by Zymosan A (Sigma Chemical) (Masashi et al. Zymosan, but Not Lipopolysaccharide, Triggers Severe and Progressive Peritoneal Injury Accompanied by complement Activation in a Rat Peritonitis Model) was prepared freshly in sterile, 0.9% w/v saline, and 0.5 ml was injected i.p. from day 0 to Day 5. The lymphocyte population in the peripheral blood was determined with a flow cytometer. Cells were phenotyped by flow cytometry with the following primary antibodies: CD4 (FITC) and CD8 (PE). Cells were gated broadly on all live lymphocyte cells, with only debris and multiple cell clusters being excluded. Analysis of mean fluorescence intensity was done and percentage cell population was evaluated. […]
# (§2) The Cytometric Bead Array (Mouse Inflammation kit) was used to study cytokines in peritoneal fluid. […] Briefly, a mixture of 6 capture bead populations (50 μl) with distinct fluorescence intensities (detected in FL3) coated with antibodies specific for the above cytokines was mixed with each sample/standard (50 μl). […] Following acquisition of data by two colour cytometric analysis, the sample results were analysed using CBA software (BD Biosciences). […] Individual cytokine concentration ratios were indicated by their fluorescent intensities and was determined by interpolation from the corresponding standard curve.
# [2] = tested on: TNF-α; test: Cytometric Bead Array of peritoneal fluid, chronic zymosan peritonitis: TNF-α; format: in vivo, mouse; details: 2 mg/kg, vs Zymosan control
# Method: as §1, §2
# [3] = tested on: IL-10; test: Cytometric Bead Array of peritoneal fluid, chronic zymosan peritonitis: IL-10; format: in vivo, mouse; details: 2 mg/kg, vs Zymosan control
# Method: as §1, §2
# [4] = tested on: Klebsiella pneumoniae (Gram-negative); test: Bacterial translocation from the gut into organs: K. pneumoniae; format: in vivo; details: Withanone 2 mg/kg; positive/6 mice
# Method: (§3) Peritoneal inflammation was induced by Zymosan A (Sigma Chemical) (Masashi et al. Zymosan, but Not Lipopolysaccharide, Triggers Severe and Progressive Peritoneal Injury Accompanied by complement Activation in a Rat Peritonitis Model) was prepared freshly in sterile, 0.9% w/v saline, and 0.5 ml was injected i.p. from day 0 to Day 5. The lymphocyte population in the peripheral blood was determined with a flow cytometer. Cells were phenotyped by flow cytometry with the following primary antibodies: CD4 (FITC) and CD8 (PE). Cells were gated broadly on all live lymphocyte cells, with only debris and multiple cell clusters being excluded. Analysis of mean fluorescence intensity was done and percentage cell population was evaluated. The test drugs were administered for 30 days after the induction of peritonitis. On 36th day the peritoneal cavity was lavaged with 1.5 ml saline, and after a 30-s gentle manual massage, 0.5 ml exudate was retrieved, centrifuged at 3000 g for 3 min, and frozen at […] prior to cytokine and chemotactic-factor assessment.
# (§4) Intestine serves as a barrier in preventing gut bacteria and/or endotoxin from spreading to organs and tissues. It is also known that bacterial translocation occurs in critically ill or immunocompromised patients, and the physical disruption of mucosal barrier in vivo rodent models seem to be a key factor Tor translocation (Deitch et al. Effect of hemorrhagic shock on bacterial translocation, intestinal morphology, and intestinal permeability in conventional and antibiotic-decontaminated rats; Critical Care Medicine; 1990 18(5)). Bacterial translocation from the gut into the peritoneal cavity and organs was analyzed. The mesenteric lymph nodes, liver, and spleen of mice, study group of 30, were removed using sterile instruments. The organs were then homogenized in 1 ml of sterile cooked meat broth and 50 μl of organ homogenate was spread on blood agar plates to detect aerobic bacteria and Eosin Methylene blue agar plates to detect specially for E. coli. These plates were then incubated at 37° C. for 2 days. […]
# [5] = tested on: Proteus mirabilis (Gram-negative); test: Bacterial translocation from the gut into organs: P. mirabilis; format: in vivo; details: Withanone 2 mg/kg; positive/6 mice
# Method: as §3, §4
# [6] = tested on: Membrane attack complex (MAC); test: Membrane attack complex in peritoneal exudate (ELISA), chronic zymosan peritonitis; format: in vivo, mouse; details: 2 mg/kg, day 36
# Method: as §3
# Assembly of Membrane attack complex (MAC) results from the complex pathway starting from C5 convertase cleaving C5 to form C5a and C5b. […] The protein concentrations were carried out by means of colorimetric measurement at 450 nm on an ELISA plate reader by interpolation from a standard curve. […]
# [7] = tested on: C3b; test: Complement activation product C3b in serum (ELISA), chronic zymosan peritonitis; format: in vivo, mouse; details: 2 mg/kg
# Method: as §3
# Complement activation is a system of more than 30 proteins in the plasma and on cell surfaces. The activation takes place by three pathways, classical, lectin, and alternative. […]
smiles,measurement,setting,value
CC1=C(C)C(=O)O[C@@H]([C@@H](C)[C@@]2(O)CC[C@H]3[C@@H]4[C@@H]5O[C@@H]5[C@@]5(O)CC=CC(=O)[C@]5(C)[C@H]4CC[C@@]32C)C1 [Withanone],Inhibition of IL-6,[1],61%
same,Inhibition of TNF-α,[2],58%
same,Inhibition of IL-10,[3],52%
same,"Bacterial translocation, Liver, k. pneumonia",[4],0/6
same,"Bacterial translocation, Mesenteric Lymph Nodes, k. pneumonia",[4],0/6
same,"Bacterial translocation, Spleen, k. pneumonia",[4],1/6
same,"Bacterial translocation, Liver, p. mirabilis",[5],0/6
same,"Bacterial translocation, Mesenteric Lymph Nodes, p. mirabilis",[5],0/6
same,"Bacterial translocation, Spleen, p. mirabilis",[5],0/6
same,Decrease of expression levels of MAC compared to the Zymosan control,[6],56%
same,Inhibition of complement activation product C3b compared to the Zymosan control,[7],44%
